Reference: US12410185B2, “Compounds targeting mutant calreticulin” (MYELOPRO DIAGNOSTICS AND RESEARCH GmbH, priority 2018, dated 2025)
Where two headings read alike, the source gives them in different places. Each block holds one compound with its values, some of them ahead of it.

Legend:
CALR mutant cell lines = experiment: cells; settings: for IC50: read-out: IC50 in mutant cell lines
Description: (§1) Ba/F3 and UT-7-TPO were plated 5.000 cells/well and 16.000 cells/well into 96-well plates with the desirable concentrations of compounds or cytokines added to a total volume of 100 ul. 72 hours later, the CellTiter-Glo luminescent Cell Viability Assay (Promega) was used to determine the cell viability. The luminescent signal was detected by a VICTOR Multilabel Plate Reader (PerkinElmer). Dose response data was analyzed by Graphpad Prism 7.0.
(§2) To further explore the chemical space of the compound, a few hematoxylin analogues were also tested (FIGS. 15 to 17). […] The compounds Protosappanin B (A-4) and RJ002 (B-2) were also tested. […] As a comparison, the clinically used chemotherapeutic drugs hydroxyurea and ruxolitinib were also tested in the cell models.

CALR wild-type cell line = experiment: 72 h dose response of hematoxylin, analogues and control compounds; format: cell-based; settings: 72 h assay
Description: as §1, §2

[1] = solubility in 10 mM stock solution; format: physicochemical; settings: compounds dissolved in DMSO
Description: All tested compounds were dissolved in DMSO.
(§3) These included HEM8 (B-18), HEM11 (B-19), HEM30 (B-20), HEM36 (B-26), HEM44 (B-34) and HEM46 (B-36) which were used at 1/10 of the concentration (1 uM for Ba/F3 and 3 uM for UT-7).

Ba/F3 cells = experiment: cytotoxicity screen of further hematoxylin derivatives; format: cell-based, mouse; settings: 10 uM (1 uM for compounds insoluble in 10 mM stock)
Description: (§4) Cytotoxicity screens were performed essentially as described in Example 1.
as §3

UT-7 cells = experiment: as above; format: cell-based; settings: 30 uM (3 uM for compounds insoluble in 10 mM stock)
Description: as §4, §3

[2] = system: WT cell line (UT-7 cells); experiment: IC50 of further hematoxylin derivatives (Table 3); format: cell-based; settings: Homo sapiens
Description: as §4

[3] = system: mutant cell line (UT-7 cells); experiment: IC50 of further hematoxylin derivatives (Table 3); format: cell-based; settings: Homo sapiens
Description: as §4

[4] = UT7, UT-7 cells, read-out: IC50 WT cell line
[5] = UT7, UT-7 cells, read-out: IC50 mutant cell line

Compound: CN1C(=O)/C(=C/c2ccc(C(=O)Oc3cc4c(cc3OC(=O)c3ccc(/C=C5\SC(=S)N(C)C5=O)cc3)[C@@H]3c5ccc(OC(=O)c6ccc(/C=C7\SC(=S)N(C)C7=O)cc6)c(OC(=O)c6ccc(/C=C7\SC(=S)N(C)C7=O)cc6)c5OC[C@]3(O)C4)cc2)SC1=S [HEM32 (B-22)]
selectivity and potency in cytotoxicity screen (UT-7 cells): Best results in terms of selectivity and potency | IC50 [2, 4]: 18.8 µM | IC50 [3, 5]: 16.1 µM

Compound: CC(C)C(=O)Oc1cc2c(cc1OC(=O)C(C)C)[C@@H]1c3ccc(OC(=O)C(C)C)c(OC(=O)C(C)C)c3OC[C@]1(O)C2 [HEM40 (B-30)]
selectivity and potency in cytotoxicity screen (UT-7 cells): Best results in terms of selectivity and potency | IC50 [2, 4]: 14.5 µM | IC50 [3, 5]: 12 µM

Compound: CCC(=O)Oc1cc2c(cc1OC(=O)CC)[C@@H]1c3ccc(OC(=O)CC)c(OC(=O)CC)c3OC[C@]1(O)C2 [HEM42 (B-32)]
selectivity and potency in cytotoxicity screen (UT-7 cells): Best results in terms of selectivity and potency | IC50 [2, 4]: 26.2 µM | IC50 [3, 5]: 20.8 µM

Compound: CCCC(=O)Oc1cc2c(cc1OC(=O)CCC)[C@@H]1c3ccc(OC(=O)CCC)c(OC(=O)CCC)c3OC[C@]1(O)C2 [HEM47 (B-37)]
selectivity and potency in cytotoxicity screen (UT-7 cells): Best results in terms of selectivity and potency | IC50 ([2]; UT7, read-out: IC50 WT cell line): 14.7 µM | IC50 ([3]; UT7, read-out: IC50 mutant cell line): 12.4 µM

Compound: CC(C)(C)C(=O)Oc1cc2c(cc1OC(=O)C(C)(C)C)[C@@H]1c3ccc(OC(=O)C(C)(C)C)c(OC(=O)C(C)(C)C)c3OC[C@]1(O)C2 [HEM48 (B-38)]
selectivity and potency in cytotoxicity screen (Ba/F3 cells): Best results in terms of selectivity and potency

Compound: NC(=O)NO [Hydroxyurea, reference compound]
cytotoxic selectivity for mutant vs wild-type cell lines (CALR mutant cell lines): did not show any selective killing effect

Compound: CC(=O)Oc1cc2c(cc1OC(C)=O)[C@@H]1c3ccc(OC(C)=O)c(OC(C)=O)c3OC[C@]1(OC(C)=O)C2 [L-HEM1 (B-1)]
cytotoxic selectivity for mutant vs wild-type cell lines (CALR mutant cell lines): compromise both potency and selectivity

Compound: COc1cc2c(cc1OC)C1c3ccc(OC)c(OC)c3OCC1(O)C2 (centres unmarked) [NSC7251 (A-5)]
cytotoxic selectivity for mutant vs wild-type cell lines (CALR mutant cell lines): compromise both potency and selectivity

The next lines start with results.

IC50 (CALR mutant cell lines; 72 h): 1.9 µM
Compound: Oc1ccc2c(c1)OC[C@]1(O)Cc3cc(O)c(O)cc3[C@H]21 [Brazilin (A-2), Brazilin]
cytotoxic selectivity for mutant vs wild-type cell lines (CALR mutant cell lines): comparable cytotoxic selectivity | IC50 (CALR wild-type cell line; read-out: IC50 in wild-type cell line): 6.2 µM

solubility in a 10 mM stock solution [1]: insoluble in a 10 mM stock solution
Compound: O=C(Oc1cc2c(cc1OC(=O)c1cccc(N3C(=O)/C(=C/c4cccc(F)c4)SC3=S)c1)[C@@H]1c3ccc(OC(=O)c4cccc(N5C(=O)/C(=C/c6cccc(F)c6)SC5=S)c4)c(OC(=O)c4cccc(N5C(=O)/C(=C/c6cccc(F)c6)SC5=S)c4)c3OC[C@]1(O)C2)c1cccc(N2C(=O)/C(=C/c3cccc(F)c3)SC2=S)c1 [HEM8 (B-18)]

solubility in a 10 mM stock solution [1]: insoluble in a 10 mM stock solution
Compound: O=C(CCN1C(=O)/C(=C/c2ccc(Cl)cc2)SC1=S)Oc1cc2c(cc1OC(=O)CCN1C(=O)/C(=C/c3ccc(Cl)cc3)SC1=S)[C@@H]1c3ccc(OC(=O)CCN4C(=O)/C(=C/c5ccc(Cl)cc5)SC4=S)c(OC(=O)CCN4C(=O)/C(=C/c5ccc(Cl)cc5)SC4=S)c3OC[C@]1(O)C2 [HEM11 (B-19)]

solubility in a 10 mM stock solution [1]: insoluble in a 10 mM stock solution
Compound: O=C(Oc1cc2c(cc1OC(=O)c1ccc(/C=C3\SC(=S)N(c4ccc(F)cc4)C3=O)cc1)[C@@H]1c3ccc(OC(=O)c4ccc(/C=C5\SC(=S)N(c6ccc(F)cc6)C5=O)cc4)c(OC(=O)c4ccc(/C=C5\SC(=S)N(c6ccc(F)cc6)C5=O)cc4)c3OC[C@]1(O)C2)c1ccc(/C=C2\SC(=S)N(c3ccc(F)cc3)C2=O)cc1 [HEM30 (B-20)]
selectivity and potency in cytotoxicity screen (Ba/F3 cells): Best results in terms of selectivity and potency

solubility in a 10 mM stock solution [1]: insoluble in a 10 mM stock solution
Compound: O=C(Oc1cc2c(cc1OC(=O)c1ccc(Cl)cc1)[C@@H]1c3ccc(OC(=O)c4ccc(Cl)cc4)c(OC(=O)c4ccc(Cl)cc4)c3OC[C@]1(OC(=O)c1ccc(Cl)cc1)C2)c1ccc(Cl)cc1 [HEM36 (B-26)]

solubility in a 10 mM stock solution [1]: insoluble in a 10 mM stock solution
Compound: O=C(Oc1cc2c(cc1OC(=O)C(Cl)Cl)[C@@H]1c3ccc(OC(=O)C(Cl)Cl)c(OC(=O)C(Cl)Cl)c3OC[C@]1(O)C2)C(Cl)Cl [HEM44 (B-34)]

solubility in a 10 mM stock solution [1]: insoluble in a 10 mM stock solution
Compound: CC(C)CC(=O)Oc1cc2c(cc1OC(=O)CC(C)C)[C@@H]1c3ccc(OC(=O)CC(C)C)c(OC(=O)CC(C)C)c3OC[C@]1(O)C2 [HEM46 (B-36)]

IC50 (CALR mutant cell lines; 72 h): 0.195 µM | IC50 reduction in the mutant cell lines compared to wild-type cells (CALR mutant cell lines; 72 h assay): about 2 fold
Compound: N#CC[C@H](C1CCCC1)n1cc(-c2ncnc3[nH]ccc23)cn1 [ruxolitinib, Ruxolitinib, reference compound]
cytotoxic selectivity for mutant vs wild-type cell lines (CALR mutant cell lines): mild selective effect | IC50 (CALR wild-type cell line; read-out: IC50 in wild-type cells): 0.4 µM

IC50 (CALR mutant cell lines; 72 h assay): 7.5 µM
Compound: Hematein [Hematein (A-3)]
cytotoxic selectivity for mutant vs wild-type cell lines (CALR mutant cell lines): retained the cytotoxic selectivity
